Like-named read-outs stand apart in the source and are kept apart here.
Tests used:
[1] = Penetration test using a Strat-M membrane in a Franz Cell, UPLC analysis
Protocol: In this study, exemplary actives with different hydrophilicity value were chosen. P is the partition coefficient, where a smaller P (more negative log P) indicates greater hydrophilicity. A penetration test was performed using a Strat-M® membrane, and the collected sample was then analyzed by Ultra-Performance Liquid Chromatography (UPLC). In the receptor chamber of a Franz Cell, 5.00 mL of the incubation medium was added as the collection phase. A Strat-M® membrane was loaded on top of the receptor chamber. The donor chamber was then added on top of the Strat-M® membrane, 0.80 mL of the crème was added to the donor chamber. […] At the end of that time period, 1.00 mL of the collection phase was withdrawn from the sampling port as the sample solution. The sample solution was filtered through a 0.45 micrometer (μm) syringe filter and then added into a 2.0 milliliter (mL) High Performance Liquid Chromatography (HPLC) vial. ACQUITY H UPLC from the Waters Corporation was used to analyze the collected samples from the Franz Cell study.
The amount of actives in the collection phase were analyzed by UPLC following the method described above.

[2] = cited from earlier work

Question: Which “effect of inclusion of the copolymer blend on delivery of the active” value [1] does the source give for `O=C1O[C@H]([C@@H](O)CO)C(O)=C1O[C@H]1O[C@H](CO)[C@@H](O)[C@H](O)[C@H]1O` [ascorbyl glucoside] here?
Answer: The value was “enhanced the delivery”.

Question: And the “Active Log P” value [2]?
Answer: The value was −4.79.

Question: Which “% of Penetration” value ([1]; Franz Cell, room temperature, 48 hours) does the source give for `Cn1c(=O)c2c(ncn2C)n(C)c1=O` [caffeine] here?
Answer: Its value is “greater than 100%”.

Question: For `NC(=O)c1cccnc1` [niacinamide], which “effect of inclusion of the copolymer blend on delivery of the active” value ([1]; with versus without copolymer blend) is on record?
Answer: The value was “did not enhance the delivery”.

From patent US11291618B2, “Long wear skincare compositions” (priority 2019, dated 2022)
